Literature values, collected in patent publication US20140271892A1, “PHENYLEPHRINE RESINATE PARTICLES HAVING GOOD AUC” (McNeil-PPC, Inc., priority 2013, published 2014).

Experiments:
[1] = therapeutic dose
[2] = 30 mg dose administered orally over eight hours

excreted unchanged in the urine [1]	metabolized to m-hydroxy-phenylglycol-sulfate [2]	metabolized to m-hydroxymandelic acid [2]	metabolized to phenylephrine-glucuronide [2]	metabolized to phenylephrine-sulfate [2]	Structure (SMILES)
Less than 9 % of a therapeutic dose					CC(=O)Nc1ccc(O)cc1 [acetaminophen, Acetaminophen]
	6 % of the dose	30 % of the dose	12 % of the dose	47 % of the dose	CNC[C@H](O)c1cccc(O)c1 [phenylephrine, (R)-1-(3-hydroxyphenyl)-2-methylaminoethanol]
